# According to publication PMC7010297, “How the initiating ribosome copes with ppGpp to translate mRNAs” (PLoS Biology, 2020):
# Values joined by “and” are separate entries in the source; they are usually repeats but may differ in a detail not shown here. Equal entries are not always repeated.
# What was measured:
# [1] = biological target: T1, IF2-bound 30S IC (Escherichia coli, UniProt P0A705); assay: 30S IC formation by MST, guanosine nucleotide titration; format: binding;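 as to MST Average: lower thermophoresis signal means Bpy-tRNAi dissociation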;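 as to MST Replicates (a.u.): lower thermophoresis signal means Bpy-tRNAi dissociation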
# T1 construct: 6xHis (N); made in house
# T1 sequence (P0A705 whole entry, looked up): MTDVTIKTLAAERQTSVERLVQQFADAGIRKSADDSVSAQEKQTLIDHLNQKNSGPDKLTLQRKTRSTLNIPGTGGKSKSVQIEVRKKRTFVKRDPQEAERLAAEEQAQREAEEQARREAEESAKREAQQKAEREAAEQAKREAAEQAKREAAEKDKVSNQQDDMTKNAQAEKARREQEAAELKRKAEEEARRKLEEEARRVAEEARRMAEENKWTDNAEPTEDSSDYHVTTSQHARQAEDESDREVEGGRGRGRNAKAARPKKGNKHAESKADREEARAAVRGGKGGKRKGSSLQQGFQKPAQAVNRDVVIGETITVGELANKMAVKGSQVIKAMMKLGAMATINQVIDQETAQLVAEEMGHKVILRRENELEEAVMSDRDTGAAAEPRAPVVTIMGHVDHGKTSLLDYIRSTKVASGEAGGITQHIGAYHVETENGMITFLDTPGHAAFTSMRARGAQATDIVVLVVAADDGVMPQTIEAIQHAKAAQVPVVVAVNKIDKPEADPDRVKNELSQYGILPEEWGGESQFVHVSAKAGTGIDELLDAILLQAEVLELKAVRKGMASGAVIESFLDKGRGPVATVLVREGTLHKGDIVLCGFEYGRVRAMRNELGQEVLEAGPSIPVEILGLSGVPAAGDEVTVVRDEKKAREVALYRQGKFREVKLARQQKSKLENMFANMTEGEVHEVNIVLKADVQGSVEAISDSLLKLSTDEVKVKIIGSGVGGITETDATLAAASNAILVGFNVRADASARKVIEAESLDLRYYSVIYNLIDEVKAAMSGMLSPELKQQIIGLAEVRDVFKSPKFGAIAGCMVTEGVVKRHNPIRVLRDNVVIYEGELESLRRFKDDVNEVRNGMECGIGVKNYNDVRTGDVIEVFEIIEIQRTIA
# From the text: To monitor the interaction of initiator tRNA and 30S ribosomal subunits, we used Microscale Thermophoresis (MST) with a fluorescently labelled initiator tRNA (Bpy-tRNAi) (Fig 1B). MST allows to measure fluorescence in a constrained space. Changes on the readout derive from molecular drifts resulting from small thermal equilibrium perturbations. Upon equilibrium perturbations, the patterns of Bpy-tRNAi migration away from the observation space are related to bound and unbound states (Fig 1B). […] On the contrary, a decrease in thermophoresis indicated the dissociation of Bpy-tRNAi. The relation between fluorescence measured at both equilibriums (Ff to Fi, after and prior to the perturbation, respectively) as a function of ligand concentration allowed to determine dissociation constants of the interaction (Fig 1C).
# (§1) Continuous lines indicate nonlinear regression fittings with a quadratic equation. Three measurements were performed; mean and standard deviation are plotted (S1 Data). (B) as (A) to measure the concentration dependence for each tested guanosine nucleotide at constant IF2 (1 μM). […] Continuous lines show best fits using exponential functions. (D) Formation of 70S IC as measured by Bpy-tRNAi accommodation in the P site of the ribosome; 0.1 μM 30S ICs were formed with Bpy-tRNAi and rapidly mixed with 0.3 μM 50S subunits on a stopped-flow apparatus as described in [14]. Colors are as in (C). Continuous lines show best fits using an exponential function for a single reaction step. Each stopped-flow trace results from the mean of 5 to 7 replicates.
# MST was calculated from the respective fluorescence time dependencies (S3 Fig). […] Symbols as in (B). […] Continuous lines indicate nonlinear regression fittings with quadratic (B and E) or same-site competition (G) functions. Three measurements were performed; mean and standard deviations are plotted (S1 Data).
# [2] = biological target: T2, IF2 (Escherichia coli, UniProt P0A705); assay: IF2-Bpy-tRNAi-GNP ternary complex formation by MST; format: binding; settings: S2A Fig
# T2 construct: 6xHis (N); made in house
# T2 sequence (P0A705 whole entry): as the sequence (P0A705 whole entry, looked up) above
# Method: Supplementary file pbio.3000593.s002.pdf: S2 Fig IF2-Bpy-tRNAi complex formation as a function of guanosine nucleotides. (A) IF2 concentration dependencies for Bpy-tRNAi binding in the presence of 0.5 mM of the indicated guanosine nucleotides to build IF2-tRNA-GNP ternary complexes (TCs). […] Three to five measurements were performed; mean and standard deviation are plotted (S1 Data). […] (PDF) Click here for additional data file.
# [3] = biological target: T3, 70S IC (Escherichia coli, UniProt P0A705); assay: 70S IC formation by Bpy-tRNAi accommodation, stopped-flow; format: biochemical; design: K1, best-fit value: unit not given here; settings: for A0, best-fit value / A1, best-fit value / K1, best-fit value / k2, best-fit value: fit Y=A0+A1*exp(-K1*x)+k2*x; for kfast (s-1) Avg: fluorescence
# T3 construct: 6xHis (N); made in house
# T3 sequence (P0A705 whole entry, looked up): as above
# Method: as §1
# (A) Scheme of 70S IC formation. […] Time traces were analyzed by nonlinear regression with exponential terms. […] Formation of 70S IC, as measured by Bpy-tRNAi accommodation in the absence (F) or presence of 200 μM ppGpp (G). Time traces were analyzed by nonlinear regression with one exponential term. […] Continuous lines show best fits using an exponential function for a single reaction step. All time traces are mean values of 5 to 10 replicates. Bar graphs show mean and standard errors (error bars) derived from the nonlinear regression fitting (D,E,H,I) (S1 Data).
# To measure 70S pre-IC formation, a SX-20 stopped-flow instrument (Applied Photophysics, Leatherhead, UK) was set up for LS recording with an excitation wavelength of 430 nm. Scattered light was measured at an angle of 90° without a filter. Pseudo first-order conditions were approximated by using ≥3-fold excess of 50S subunits over 30S ICs; 0.2 μM 30S ICs were rapidly mixed in the instrument with 0.6 μM 50S at 25 °C. Bpy-tRNAi accommodation was measured essentially as described elsewhere. Briefly, 0.2 μM 30S ICs were formed using Bpy-tRNAi and rapidly mixed with 0.6 μM 50S at 25 °C. Fluorescence was excited at 470 nm and measured after a 495-nm longpass filter. Individual traces (6–11 traces) were averaged, and the resulting kinetic curve was approximated by single (F = A0 + A1*exp (-kapp1*t)) or double (F = A0 + A1*exp (-kapp1*t) + A2*exp (-kapp2*t)) exponential fit using Graphpad Prism 6.0 software (GraphPad, San Diego, California).
structure (smiles),measurement,setting,value
"Nc1nc2c(ncn2[C@@H]2O[C@H](COP(=O)(O)OP(=O)(O)OP(=O)(O)O)[C@@H](O)[C@H]2O)c(=O)[nH]1 [GTP, guanosine triphosphate]",MST Replicates (a.u.),"[1]; mMF1, GTP 7.812 μM",1030.42 a.u. and 1036.20 a.u. and 1036.34 a.u.
same,MST Average,"[1]; mMF1, GTP 15.625 μM",1039.20 a.u.
same,MST Replicates (a.u.),"[1]; mMF1, GTP 15.625 μM",1035.40 a.u. and 1041.45 a.u. and 1040.76 a.u.
same,MST Average,"[1]; mMF1, GTP 31.25 μM",1035.42 a.u.
same,MST Replicates (a.u.),"[1]; mMF1, GTP 31.25 μM",1032.74 a.u. and 1036.98 a.u. and 1036.55 a.u.
same,KD of GTP with mTufA lower than with mMF1,[1]; mTufA vs mMF1,about 2 fold
same,MST Average,"[1]; mTufA, GTP 0.244 μM",1017.37 a.u.
same,MST Average,"[1]; mTufA, GTP 1.953 μM",1082.32 a.u.
same,MST Average,"[1]; mTufA, GTP 3.906 μM",1097.99 a.u.
same,MST Replicates (a.u.),"[1]; mTufA, GTP 3.906 μM",1095.97 a.u. and 1098.36 a.u. and 1099.66 a.u.
same,MST Average,"[1]; mTufA, GTP 7.812 μM",1113.91 a.u.
same,MST Replicates (a.u.),"[1]; mTufA, GTP 7.812 μM",1111.40 a.u. and 1114.56 a.u. and 1115.76 a.u.
same,MST Average,"[1]; mTufA, GTP 15.625 μM",1117.61 a.u.
same,MST Replicates (a.u.),"[1]; mTufA, GTP 15.625 μM",1116.26 a.u. and 1117.65 a.u. and 1118.92 a.u.
same,MST Average,"[1]; mTufA, GTP 31.25 μM",1112.61 a.u.
same,MST Replicates (a.u.),"[1]; mTufA, GTP 31.25 μM",1112.94 a.u. and 1112.01 a.u. and 1112.88 a.u.
same,Kd,"[1]; nucleotide titration at constant IF2 (1 μM), read-out: KD for the IF2-bound 30S IC",500 ± 100 nM
same,MST Average,[2]; IF2 0.08 µM,945.53 a.u.
same,MST Replicates,[2]; IF2 0.08 µM,952.20 a.u. and 948.28 a.u. and 936.11 a.u.
same,MST Average,[2]; IF2 0.16 µM,947.39 a.u.
same,MST Replicates,[2]; IF2 0.16 µM,938.55 a.u. and 949.51 a.u. and 954.10 a.u.
same,MST Average,[2]; IF2 0.31 µM,948.97 a.u.
same,MST Replicates,[2]; IF2 0.31 µM,951.38 a.u. and 955.20 a.u. and 940.31 a.u.
same,MST Average,[2]; IF2 0.63 µM,950.03 a.u.
same,MST Replicates,[2]; IF2 0.63 µM,955.50 a.u. and 952.44 a.u. and 942.15 a.u.
same,MST Average,[2]; IF2 2.50 µM,955.81 a.u.
same,MST Replicates,[2]; IF2 2.50 µM,960.19 a.u. and 957.37 a.u. and 949.88 a.u.
same,MST Average,[2]; IF2 5.00 µM,963.92 a.u.
same,MST Replicates,[2]; IF2 5.00 µM,963.66 a.u. and 965.85 a.u. and 962.23 a.u.
same,MST Average,[2]; IF2 10.00 µM,973.12 a.u.
same,MST Replicates,[2]; IF2 10.00 µM,974.68 a.u. and 972.27 a.u. and 972.40 a.u.
same,MST Average,[2]; IF2 20.00 µM,982.93 a.u.
same,MST Replicates,[2]; IF2 20.00 µM,983.50 a.u. and 982.36 a.u.
same,MST Average,[2]; IF2 40.00 µM,989.70 a.u.
same,MST Replicates,[2]; IF2 40.00 µM,993.21 a.u. and 991.95 a.u. and 983.94 a.u.
same,kapp of Bpy-tRNAi accommodation (70S IC formation),"[3]; 30S ICs formed with 0.2 mM nucleotide, mixed with 50S subunits",2.4 ± 0.2 s^–1
same,"A0, best-fit value",[3]; mInfA,0.90
same,"A1, best-fit value",[3]; mInfA,0.11
same,"K1, best-fit value",[3]; mInfA,1.58
same,"k2, best-fit value",[3]; mInfA,-0.00193
same,"A0, best-fit value",[3]; mMF1,0.90
same,"A1, best-fit value",[3]; mMF1,0.10
same,"K1, best-fit value",[3]; mMF1,1.49
same,"k2, best-fit value",[3]; mMF1,-1.6e-5
same,Fluorescence Amplitude Avg,[3]; mRNA mInfA,0.108
same,kfast (s-1) Avg,[3]; mRNA mInfA,1.58 s⁻¹
same,Fluorescence Amplitude Avg,[3]; mRNA mMF1,0.103
same,kfast (s-1) Avg,[3]; mRNA mMF1,1.49 s⁻¹
same,Fluorescence Amplitude Avg,[3]; mRNA mTufA,0.145
same,kfast (s-1) Avg,[3]; mRNA mTufA,2.69 s⁻¹
same,"A0, best-fit value",[3]; mTufA,0.86
same,"A1, best-fit value",[3]; mTufA,0.15
same,"K1, best-fit value",[3]; mTufA,2.69
same,"k2, best-fit value",[3]; mTufA,-0.00034
